Experimental data taken from patent publication US20120029187A1, “HALOALKYLSULFONANILIDE DERIVATIVE” (Nissan Chemical Industries, Ltd., priority 2009, published 2012).

Assays:
Format in all cases: in vivo
bulrush [1] = assay: Test Example 1: herbicidal effects in preemergence treatment under submerged conditions; settings: dose 2.52 g/a
Summary of the method: (§1)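 Weed seeds and 2.5-leaf rice seedlings shared each flooded cup of alluvial soil. Dosing, expressed as g per are, was by pouring water-diluted emulsifiable concentrate onto the surface on sowing day. Mortality was graded 0 to 5 after three weeks' growth.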

ducksalad [2] = assay: as above; settings: dose 2.52 g/a
Summary of the method: as §1

barnyardgrass [3] = assay: as above; settings: dose 2.52 g/a
Summary of the method: as §1

common lambsquater [4] = assay: Test Example 4: herbicidal effect in foliage treatment; settings: dose 3.2 g/a, three weeks after application
Summary of the method: (§2)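 Post-emergence foliar spray of water-diluted emulsifiable concentrate at predetermined doses (g per are), applied to plants 14 days after sowing in sterile diluvial soil (greenhouse, 25 to 30° C). Visual scale rating of effect taken 3 weeks later.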

Italian ryegrass [5] = assay: as above; settings: dose 3.2 g/a, three weeks after application
Summary of the method: as §2

common ragweed [6] = assay: as above; settings: dose 3.2 g/a, three weeks after application
Summary of the method: as §2

velvetleaf = assay: as above; settings: dose 3.2 g/a, three weeks after application
Summary of the method: as §2

common chickweed [7] = assay: as above; settings: dose 3.2 g/a, three weeks after application
Summary of the method: as §2

giant foxtail [8] = assay: as above; settings: dose 3.2 g/a, three weeks after application
Summary of the method: as §2

posumbu knotweed [9] = assay: as above; settings: dose 3.2 g/a, three weeks after application
Summary of the method: as §2

water foxtail [10] = assay: as above; settings: dose 3.2 g/a, three weeks after application
Summary of the method: as §2

barnyardgrass [11] = assay: as above; settings: dose 3.2 g/a, three weeks after application
Summary of the method: as §2

large crabgrass [12] = assay: as above; settings: dose 3.2 g/a, three weeks after application
Summary of the method: as §2

redroot pigweed [13] = assay: as above; settings: dose 3.2 g/a, three weeks after application
Summary of the method: as §2

wild oat [14] = assay: as above; settings: dose 3.2 g/a, three weeks after application
Summary of the method: as §2

beadstraw = assay: as above; settings: dose 3.2 g/a, three weeks after application
Summary of the method: as §2

common lambsquater [15] = assay: Test Example 3: herbicidal effects in soil treatment; settings: dose 3.2 g/a
Summary of the method: (§3)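 Seeds were sown in sterilized diluvial soil and covered with about 1.5 cm of soil. Compounds, formulated as emulsifiable concentrates and diluted with water, were sprayed evenly over the soil surface at set doses in g/a. Herbicidal effect was scored on a rating scale three weeks later.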

Italian ryegrass [16] = assay: as above; settings: dose 3.2 g/a
Summary of the method: as §3

common ragweed [17] = assay: as above; settings: dose 3.2 g/a
Summary of the method: as §3

common chickweed [18] = assay: as above; settings: dose 3.2 g/a
Summary of the method: as §3

giant foxtail [19] = assay: as above; settings: dose 3.2 g/a
Summary of the method: as §3

posumbu knotweed [20] = assay: as above; settings: dose 3.2 g/a
Summary of the method: as §3

water foxtail [21] = assay: as above; settings: dose 3.2 g/a
Summary of the method: as §3

barnyardgrass [22] = assay: as above; settings: dose 3.2 g/a
Summary of the method: as §3

large crabgrass [23] = assay: as above; settings: dose 3.2 g/a
Summary of the method: as §3

redroot pigweed [24] = assay: as above; settings: dose 3.2 g/a
Summary of the method: as §3

wild oat [25] = assay: as above; settings: dose 3.2 g/a
Summary of the method: as §3

transplanted rice = assay: Test Example 1: preemergence treatment under submerged conditions, effect on crop; settings: dose 2.52 g/a
Summary of the method: as §1

bulrush [26] = assay: Test Example 2: herbicidal effects during the vegetation period under submerged conditions; settings: treatment during the vegetation period under submerged conditions; dose 2.52 g/a
Summary of the method: (§4)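 Barnyardgrass, bulrush and ducksalad were co-sown in alluvial soil flooded to 4 cm and grown in a greenhouse at 25 to 30° C. At the 1- or 2-leaf stage, water-diluted emulsifiable concentrates went onto the water surface at set doses (g/a). Herbicidal effect was scored three weeks later on a graded scale.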

ducksalad [27] = assay: as above; settings: treatment during the vegetation period under submerged conditions; dose 2.52 g/a
Summary of the method: as §4

barnyardgrass [28] = assay: as above; settings: treatment during the vegetation period under submerged conditions; dose 2.52 g/a
Summary of the method: as §4

Compound	B: bulrush, herbicidal effect (evaluation scale 0-5) (bulrush [1])	C: ducksalad, herbicidal effect (evaluation scale 0-5) (ducksalad [2])	A: barnyardgrass, herbicidal effect (evaluation scale 0-5) (barnyardgrass [3])	L: common lambsquater, herbicidal effect (common lambsquater [4])	H: Italian ryegrass, herbicidal effect (Italian ryegrass [5])	J: common ragweed, herbicidal effect (common ragweed [6])	I: velvetleaf, herbicidal effect (velvetleaf)	N: common chickweed, herbicidal effect (common chickweed [7])	E: giant foxtail, herbicidal effect (giant foxtail [8])	M: posumbu knotweed, herbicidal effect (posumbu knotweed [9])	G: water foxtail, herbicidal effect (water foxtail [10])	A: barnyardgrass, herbicidal effect (barnyardgrass [11])	D: large crabgrass, herbicidal effect (large crabgrass [12])	K: redroot pigweed, herbicidal effect (redroot pigweed [13])	F: wild oat, herbicidal effect (wild oat [14])	O: beadstraw, herbicidal effect (beadstraw)	L: common lambsquater, herbicidal effect (evaluation scale 0-5) (common lambsquater [15])	H: Italian ryegrass, herbicidal effect (evaluation scale 0-5) (Italian ryegrass [16])	J: common ragweed, herbicidal effect (evaluation scale 0-5) (common ragweed [17])	N: common chickweed, herbicidal effect (evaluation scale 0-5) (common chickweed [18])	further results
O=C1CC(c2ccccc2)OCN1Cc1ccccc1N(C(=O)OCCCl)S(=O)(=O)C(F)(F)F (centres unmarked) [II-12]	5 (mortality of 90% or above (nearly complete death))	5 (mortality of 90% or above (nearly complete death))	5 (mortality of 90% or above (nearly complete death))	0 (mortality of less than 5% (almost ineffective))	0 (mortality of less than 5% (almost ineffective))	4 (mortality of at least 70% and less than 90%)	3 (mortality of at least 40% and less than 70%)	3 (mortality of at least 40% and less than 70%)	3 (mortality of at least 40% and less than 70%)	1 (mortality of at least 5% and less than 20%)	4 (mortality of at least 70% and less than 90%)	5 (mortality of 90% or above (nearly complete death))	2 (mortality of at least 20% and less than 40%)	0 (mortality of less than 5% (almost ineffective))	0 (mortality of less than 5% (almost ineffective))	4 (mortality of at least 70% and less than 90%)	0 (mortality of less than 5% (almost ineffective))	4 (mortality of at least 70% and less than 90%)	0 (mortality of less than 5% (almost ineffective))	3 (mortality of at least 40% and less than 70%)	E: giant foxtail, herbicidal effect (evaluation scale 0-5) (giant foxtail [19]): 5 (mortality of 90% or above (nearly complete death)); M: posumbu knotweed, herbicidal effect (evaluation scale 0-5) (posumbu knotweed [20]): 0 (mortality of less than 5% (almost ineffective)); G: water foxtail, herbicidal effect (evaluation scale 0-5) (water foxtail [21]): 5 (mortality of 90% or above (nearly complete death)); A: barnyardgrass, herbicidal effect (evaluation scale 0-5) (barnyardgrass [22]): 4 (mortality of at least 70% and less than 90%); D: large crabgrass, herbicidal effect (evaluation scale 0-5) (large crabgrass [23]): 4 (mortality of at least 70% and less than 90%); K: redroot pigweed, herbicidal effect (evaluation scale 0-5) (redroot pigweed [24]): 0 (mortality of less than 5% (almost ineffective)); F: wild oat, herbicidal effect (evaluation scale 0-5) (wild oat [25]): 0 (mortality of less than 5% (almost ineffective)); a: transplanted rice, effect on crop (evaluation scale 0-5) (transplanted rice): 0 (mortality of less than 5% (almost ineffective)); B: bulrush, herbicidal effect (evaluation scale 0-5) (bulrush [26]): 5 (mortality of 90% or above (nearly complete death)); C: ducksalad, herbicidal effect (evaluation scale 0-5) (ducksalad [27]): 5 (mortality of 90% or above (nearly complete death)); A: barnyardgrass, herbicidal effect (evaluation scale 0-5) (barnyardgrass [28]): 4 (mortality of at least 70% and less than 90%)
CC(C)(C)COC(=O)N(c1ccccc1CN1COC(C)(C)CC1=O)S(=O)(=O)C(F)(F)F [II-27]	5 (mortality of 90% or above (nearly complete death))	5 (mortality of 90% or above (nearly complete death))	5 (mortality of 90% or above (nearly complete death))	3 (mortality of at least 40% and less than 70%)	3 (mortality of at least 40% and less than 70%)	4 (mortality of at least 70% and less than 90%)	5 (mortality of 90% or above (nearly complete death))	3 (mortality of at least 40% and less than 70%)	3 (mortality of at least 40% and less than 70%)	3 (mortality of at least 40% and less than 70%)	3 (mortality of at least 40% and less than 70%)	5 (mortality of 90% or above (nearly complete death))	4 (mortality of at least 70% and less than 90%)	0 (mortality of less than 5% (almost ineffective))	0 (mortality of less than 5% (almost ineffective))	4 (mortality of at least 70% and less than 90%)	0 (mortality of less than 5% (almost ineffective))	3 (mortality of at least 40% and less than 70%)	4 (mortality of at least 70% and less than 90%)	4 (mortality of at least 70% and less than 90%)	E: giant foxtail, herbicidal effect (evaluation scale 0-5) (giant foxtail [19]): 4 (mortality of at least 70% and less than 90%); M: posumbu knotweed, herbicidal effect (evaluation scale 0-5) (posumbu knotweed [20]): 3 (mortality of at least 40% and less than 70%); G: water foxtail, herbicidal effect (evaluation scale 0-5) (water foxtail [21]): 5 (mortality of 90% or above (nearly complete death)); A: barnyardgrass, herbicidal effect (evaluation scale 0-5) (barnyardgrass [22]): 5 (mortality of 90% or above (nearly complete death)); D: large crabgrass, herbicidal effect (evaluation scale 0-5) (large crabgrass [23]): 5 (mortality of 90% or above (nearly complete death)); K: redroot pigweed, herbicidal effect (evaluation scale 0-5) (redroot pigweed [24]): 0 (mortality of less than 5% (almost ineffective)); F: wild oat, herbicidal effect (evaluation scale 0-5) (wild oat [25]): 0 (mortality of less than 5% (almost ineffective)); a: transplanted rice, effect on crop (evaluation scale 0-5) (transplanted rice): 0 (mortality of less than 5% (almost ineffective)); B: bulrush, herbicidal effect (evaluation scale 0-5) (bulrush [26]): 5 (mortality of 90% or above (nearly complete death)); C: ducksalad, herbicidal effect (evaluation scale 0-5) (ducksalad [27]): 5 (mortality of 90% or above (nearly complete death)); A: barnyardgrass, herbicidal effect (evaluation scale 0-5) (barnyardgrass [28]): 5 (mortality of 90% or above (nearly complete death))
